Source: patent US11564920B2, “5-heteroaryl-1H-pyrazol-3-amine derivative” (Sumitomo Pharma Co., Ltd., priority 2020, dated 2023)

Legend:
[1] = Liposome encapsulation test of Example 1 (Test Example 6A); assay type: physicochemical
Procedure: 11.08 g of Presome ACD-1 (pre-prepared mixture consisting of hydrogenated soybean phosphatidylcholine, cholesterol, and distearoylphosphatidylethanolamine-methoxypolyethylene glycol 2000 at a mass ratio of 3:1:1, Nippon Fine Chemical Co., Ltd.) was weighed out, and 200 mL of 250 mM ammonium sulfate solution was added. The resulting mixture was heated to 65° C. and dispersed with a homogenizer (ULTRA-TURRAX, IKA) to obtain a crude liposome dispersion. […] The mixture was filtered through a 0.22 μm membrane filter to obtain an empty liposome solution with a total lipid concentration of 75 mM (75 μmol/mL).
The compound of Example 1 was weighed out. About 0.4 mL of 10 mM L-histidine buffer/10% sucrose solution (pH 6.5), about 0.1 mL of 0.1 mol/L hydrochloric acid, and 1 mL of the empty liposome solution were added, and the pH was adjusted to 6 to 6.5 by adding 1 mol/L hydrochloric acid. The mixture was heated for 30 minutes in a 65° C. water bath and then cooled with ice. The mixture was then filtered through a 0.22 μm membrane filter.
The liposome encapsulation ratio was calculated as follows. Unencapsulated compound concentration: The compound concentration was measured by HPLC for a solution prepared by adding 100 μL of aqueous 4% phosphoric acid solution to 100 μL of liposome solution. HPLC measurement conditions are the following.
Compound concentration in liposome solution: The liposome solution was diluted with a trifluoroacetic acid/water/methanol mixture (0.1/25/75) and was left standing for 10 minutes or longer at 5° C. The mixture was centrifuged for 5 minutes at 15,000×g to remove insolubles. The compound concentration in the supernatant was measured by HPLC. HPLC measurement conditions are the following. HPLC Conditions Column: Acquity UPLC BEH C18, 1.7 μm, 50×2.1 mm Column temperature: 40° C. Mobile phase: A: 0.1% trifluoroacetic acid containing water B: acetonitrile A/B (min): 95/5 (0)→0/100 (3.5)→0/100 (4)→95/5 (4.01)→95/5 (5) Flow rate: 0.8 mL/min Detection: UV visible detector, measured wavelength 254 nm injected volume: 5 μL
The encapsulation ratio and encapsulation efficiency were calculated by the following equations. Encapsulation ratio (%)=(compound concentration in liposome solution−unencapsulated compound concentration)×100/compound concentration in liposome solution Encapsulation efficiency (%)=(compound concentration in liposome solution−unencapsulated compound concentration)[…]

CHK1 = CHK1 (Homo sapiens (Human), UniProt O14757); test: CHK1/CHK2 selectivity test (LabChip mobility shift); assay type: biochemical; conditions: read-out: IC50 value with respect to CHK1
CHK2 = CHK2 (Homo sapiens (Human), UniProt O96017); test: as above; assay type: biochemical; conditions: read-out: IC50 value with respect to CHK2
Procedure: A 4-fold concentration test compound solution was prepared with an assay buffer (20 mM HEPES, 0.01% Triton X-100, 1 mM DTT, pH 7.5). A 4-fold concentration substrate/ATP/metal solution was prepared with a kit buffer (20 mM HEPES, 0.01% Triton X-100, 5 mM DTT, pH 7.5).

hERG current [2] = biological target: T1, hERG current (Homo sapiens (Human), UniProt Q12809); test: cell-based
Procedure: (§4) The test compounds were added to cultured hERG (human Ether-a-go-go Related Gene) gene stably expressing CHO cell line cells to achieve 0.27 to 100 μM.

hERG current [3] = biological target: T1, hERG current; test: hERG current blocking test; conditions: IC50 of hERG divided by IC50 of CHK1 inhibition of Test Example 1
Procedure: as §4

CDK19/CYCLIN C = CDK19/CYCLIN C (Homo sapiens (Human), UniProt Q9BWU1); test: Kinase selectivity test (HotSpot Full Panel Kinase profiling); assay type: biochemical; conditions: 100 nM, ATP 10 μM; read-out: Residual activity (%) CDK19/CYCLIN C
Procedure: (§1) Buffer: 20 mM HEPES, pH 7.5, 10 mM MgCl2, 2 mM […] (as needed), 1 mM EGTA, 0.02% Brij35, 0.02 mg/mL BSA, 0.1 mM Na3VO4, 2 mM DTT, 1% DMSO
(§2) ATP conversion rate in 2 hours: 5 to 20%
(§3) Compound concentration: 100 nM

GLK/MAP4K3 = GLK/MAP4K3 (Homo sapiens (Human), UniProt Q8IVH8); test: as above; assay type: biochemical; conditions: 100 nM, ATP 10 μM; read-out: Residual activity (%) GLK/MAP4K3
Procedure: as §1, §2, §3

LRRK2 = LRRK2 (Homo sapiens (Human), UniProt Q5S007); test: as above; assay type: biochemical; conditions: 100 nM, ATP 10 μM; read-out: Residual activity (%) LRRK2
Procedure: as §1, §2, §3

MEK5 = MEK5 (Homo sapiens (Human), UniProt Q13163); test: as above; assay type: biochemical; conditions: 100 nM, ATP 10 μM; read-out: Residual activity (%) MEK5
Procedure: as §1, §2, §3

SIK1 = SIK1 (Homo sapiens (Human), UniProt P57059); test: as above; assay type: biochemical; conditions: 100 nM, ATP 10 μM; read-out: Residual activity (%) SIK1
Procedure: as §1, §2, §3

T1 sequence (Q12809 whole entry): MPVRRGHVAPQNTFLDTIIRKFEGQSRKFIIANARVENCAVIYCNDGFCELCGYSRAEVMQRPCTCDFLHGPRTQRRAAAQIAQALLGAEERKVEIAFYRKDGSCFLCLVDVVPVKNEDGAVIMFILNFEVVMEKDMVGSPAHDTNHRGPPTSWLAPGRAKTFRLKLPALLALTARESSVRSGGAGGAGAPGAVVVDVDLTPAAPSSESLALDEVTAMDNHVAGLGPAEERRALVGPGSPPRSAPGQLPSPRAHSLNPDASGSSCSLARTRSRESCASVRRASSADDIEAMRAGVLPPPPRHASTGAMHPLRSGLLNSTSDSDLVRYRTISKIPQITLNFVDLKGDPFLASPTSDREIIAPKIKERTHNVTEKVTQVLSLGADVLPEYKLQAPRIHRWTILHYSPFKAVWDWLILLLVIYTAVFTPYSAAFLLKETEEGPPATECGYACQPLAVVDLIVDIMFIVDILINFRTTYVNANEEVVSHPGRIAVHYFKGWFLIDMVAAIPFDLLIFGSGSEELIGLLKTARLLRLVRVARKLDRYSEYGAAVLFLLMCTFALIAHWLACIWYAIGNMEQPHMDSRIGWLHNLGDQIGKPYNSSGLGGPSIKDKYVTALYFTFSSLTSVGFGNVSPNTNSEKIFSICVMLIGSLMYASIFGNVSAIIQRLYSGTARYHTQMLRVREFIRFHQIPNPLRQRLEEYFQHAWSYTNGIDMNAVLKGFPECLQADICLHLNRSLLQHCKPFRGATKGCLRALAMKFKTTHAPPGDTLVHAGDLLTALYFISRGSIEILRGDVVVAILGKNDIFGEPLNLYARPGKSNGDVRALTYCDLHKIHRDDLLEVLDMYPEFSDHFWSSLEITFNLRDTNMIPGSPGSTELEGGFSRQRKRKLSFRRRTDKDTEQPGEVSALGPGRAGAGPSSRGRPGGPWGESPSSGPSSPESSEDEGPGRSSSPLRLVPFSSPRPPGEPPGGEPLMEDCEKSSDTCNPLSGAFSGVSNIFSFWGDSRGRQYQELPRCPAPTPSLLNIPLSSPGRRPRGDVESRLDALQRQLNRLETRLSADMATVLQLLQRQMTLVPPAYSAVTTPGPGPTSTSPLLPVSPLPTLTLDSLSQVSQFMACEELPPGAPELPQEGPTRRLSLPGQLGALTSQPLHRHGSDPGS
CHK1, sequence (O14757 whole entry): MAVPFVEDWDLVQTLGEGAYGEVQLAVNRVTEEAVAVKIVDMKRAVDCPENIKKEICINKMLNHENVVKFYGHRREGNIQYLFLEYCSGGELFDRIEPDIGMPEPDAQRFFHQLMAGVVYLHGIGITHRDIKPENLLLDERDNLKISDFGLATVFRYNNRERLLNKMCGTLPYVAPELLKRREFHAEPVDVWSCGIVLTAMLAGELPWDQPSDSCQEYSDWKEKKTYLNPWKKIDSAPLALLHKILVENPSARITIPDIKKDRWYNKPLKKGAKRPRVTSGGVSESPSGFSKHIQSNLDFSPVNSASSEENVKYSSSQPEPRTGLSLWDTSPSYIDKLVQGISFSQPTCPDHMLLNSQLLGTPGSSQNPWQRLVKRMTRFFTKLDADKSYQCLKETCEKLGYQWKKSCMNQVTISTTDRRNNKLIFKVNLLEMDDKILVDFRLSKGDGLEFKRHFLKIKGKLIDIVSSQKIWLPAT
SIK1, sequence (P57059 whole entry): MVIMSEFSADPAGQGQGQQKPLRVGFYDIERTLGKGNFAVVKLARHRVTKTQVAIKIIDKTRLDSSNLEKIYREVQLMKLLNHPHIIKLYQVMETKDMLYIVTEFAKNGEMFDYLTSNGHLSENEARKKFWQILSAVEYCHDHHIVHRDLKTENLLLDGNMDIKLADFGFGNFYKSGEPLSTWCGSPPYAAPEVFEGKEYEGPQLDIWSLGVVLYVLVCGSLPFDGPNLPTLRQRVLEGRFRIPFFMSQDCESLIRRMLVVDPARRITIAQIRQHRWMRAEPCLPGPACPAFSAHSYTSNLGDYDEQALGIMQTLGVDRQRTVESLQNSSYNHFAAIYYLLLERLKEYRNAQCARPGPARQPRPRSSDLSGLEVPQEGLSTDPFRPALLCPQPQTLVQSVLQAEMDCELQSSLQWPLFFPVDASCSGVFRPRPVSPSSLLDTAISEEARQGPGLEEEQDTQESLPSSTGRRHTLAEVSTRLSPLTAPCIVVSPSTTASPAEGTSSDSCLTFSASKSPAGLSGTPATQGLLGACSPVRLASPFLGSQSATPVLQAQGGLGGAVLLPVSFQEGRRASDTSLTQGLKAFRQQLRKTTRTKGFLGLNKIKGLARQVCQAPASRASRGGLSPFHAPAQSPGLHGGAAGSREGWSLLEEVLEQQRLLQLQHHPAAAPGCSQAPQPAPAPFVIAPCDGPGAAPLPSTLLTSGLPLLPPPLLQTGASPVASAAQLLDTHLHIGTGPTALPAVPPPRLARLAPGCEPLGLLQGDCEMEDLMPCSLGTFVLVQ
MEK5, sequence (Q13163 whole entry): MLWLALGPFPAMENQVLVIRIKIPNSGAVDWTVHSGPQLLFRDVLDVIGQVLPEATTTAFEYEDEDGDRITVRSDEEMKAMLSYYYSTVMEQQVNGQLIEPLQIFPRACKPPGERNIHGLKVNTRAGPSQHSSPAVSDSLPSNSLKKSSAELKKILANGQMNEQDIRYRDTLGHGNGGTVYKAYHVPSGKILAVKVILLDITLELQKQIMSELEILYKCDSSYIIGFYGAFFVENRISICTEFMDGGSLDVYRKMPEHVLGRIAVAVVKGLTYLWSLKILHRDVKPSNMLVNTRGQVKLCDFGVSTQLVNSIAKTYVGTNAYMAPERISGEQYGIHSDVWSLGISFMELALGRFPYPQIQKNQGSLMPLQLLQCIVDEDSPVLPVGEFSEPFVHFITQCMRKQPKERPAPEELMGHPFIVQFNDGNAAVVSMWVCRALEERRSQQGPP
GLK/MAP4K3, sequence (Q8IVH8 whole entry): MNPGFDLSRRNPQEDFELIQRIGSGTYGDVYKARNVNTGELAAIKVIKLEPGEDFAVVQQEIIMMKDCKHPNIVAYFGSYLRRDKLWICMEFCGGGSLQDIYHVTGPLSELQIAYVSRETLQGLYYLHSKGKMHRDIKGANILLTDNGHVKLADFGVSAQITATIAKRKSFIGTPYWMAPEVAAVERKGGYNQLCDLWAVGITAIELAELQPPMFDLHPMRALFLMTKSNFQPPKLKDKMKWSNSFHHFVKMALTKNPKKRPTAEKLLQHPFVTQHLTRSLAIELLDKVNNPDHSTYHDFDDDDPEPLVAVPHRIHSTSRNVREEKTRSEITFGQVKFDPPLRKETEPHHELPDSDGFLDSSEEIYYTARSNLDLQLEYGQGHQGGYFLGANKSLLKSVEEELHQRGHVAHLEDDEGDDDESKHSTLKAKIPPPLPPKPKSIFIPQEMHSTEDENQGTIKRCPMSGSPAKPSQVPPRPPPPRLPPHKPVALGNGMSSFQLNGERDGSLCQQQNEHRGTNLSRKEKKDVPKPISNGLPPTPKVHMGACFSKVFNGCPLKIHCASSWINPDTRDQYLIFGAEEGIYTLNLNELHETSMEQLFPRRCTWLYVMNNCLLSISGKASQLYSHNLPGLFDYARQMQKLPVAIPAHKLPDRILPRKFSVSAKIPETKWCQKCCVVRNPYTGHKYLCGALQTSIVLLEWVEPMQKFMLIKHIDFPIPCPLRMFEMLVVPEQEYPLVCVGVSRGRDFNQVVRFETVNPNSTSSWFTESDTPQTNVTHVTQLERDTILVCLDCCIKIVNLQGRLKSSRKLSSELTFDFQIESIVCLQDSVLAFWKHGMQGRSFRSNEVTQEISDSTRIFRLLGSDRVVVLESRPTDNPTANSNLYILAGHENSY
CHK2, sequence (O96017 whole entry): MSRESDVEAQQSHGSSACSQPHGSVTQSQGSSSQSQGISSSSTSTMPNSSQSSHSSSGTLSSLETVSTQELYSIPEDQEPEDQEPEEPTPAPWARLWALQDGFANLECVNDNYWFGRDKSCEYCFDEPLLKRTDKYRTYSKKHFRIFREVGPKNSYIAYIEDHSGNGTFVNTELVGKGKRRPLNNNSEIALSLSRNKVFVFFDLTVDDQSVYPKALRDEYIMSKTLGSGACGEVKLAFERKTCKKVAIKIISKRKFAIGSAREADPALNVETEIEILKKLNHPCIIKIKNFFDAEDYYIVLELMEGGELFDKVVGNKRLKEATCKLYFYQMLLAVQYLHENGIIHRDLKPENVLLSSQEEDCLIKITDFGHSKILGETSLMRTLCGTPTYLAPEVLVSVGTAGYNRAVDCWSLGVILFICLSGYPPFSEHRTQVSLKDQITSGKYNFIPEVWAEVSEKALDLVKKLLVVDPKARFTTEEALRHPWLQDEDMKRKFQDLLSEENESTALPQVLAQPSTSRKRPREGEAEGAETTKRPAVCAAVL

Row | remaining activity at 0.1 µM (CDK19/CYCLIN C) | remaining activity at 0.1 µM (GLK/MAP4K3) | remaining activity at 0.1 µM (LRRK2) | remaining activity at 0.1 µM (MEK5) | remaining activity at 0.1 µM (SIK1) | Compound | liposome encapsulation efficiency [1] | Encapsulation efficiency ([1]; concentration upon compound introduction 2 mg/mL) | Encapsulation efficiency ([1]; concentration upon compound introduction 3 mg/mL) | Encapsulation efficiency ([1]; concentration upon compound introduction 4 mg/mL) | IC50 (CHK1) | IC50 (CHK2) | IC50 (hERG current [2]) | hERG/CHK1 (hERG current [3])
1 | – | – | – | – | – | COc1ccnc(OCCCN)c1-c1cc(Nc2cnc(C#N)cn2)n[nH]1 [Example 1, 5-({5-[2-(3-aminopropoxy)-4-methoxypyridin-3-yl]-1H-pyrazol-3-yl}amino)pyrazine-2-carbonitrile] | ≥ 90% | 91.3% | 91.6% | 92.2% | < 0.3 nM | 56.6 nM | 11500 nM | >115000
2 | 19.9% | 20.8% | 23.5% | 10.7% | 11.9% | COc1cccc(OCCCN)c1-c1cc(Nc2cnc(C#N)cn2)n[nH]1 [Prexasertib, reference compound] | – | – | – | – | – | – | – | –
